In patent US12433857B2, “Conjugate and cancer therapeutic agent” (Tokyo Institute of Technology, priority 2019, dated 2025):
“Also recorded” adds a separate entry of the source. Where a name gives a salt, the structure may show the parent alone.

Tests used:
DLD-1 cells [1] = experiment: Apoptosis induction by PI staining and Annexin V staining; type: cell-based, human; conditions: 1.00 mM DFO-concentration solution diluted 10-fold, 24 hours
Protocol: In order to investigate whether DFO and PEG-P[Asp(DFO)m]n would induce apoptosis, apoptotic cells were detected by PI staining and Annexin V staining.
[Preparation of DFO Solution and PEG-P[Asp(DFO)10]35 Solution] • DFO/D-PBS solution: 1.00 mM • PEG-P[Asp(DFO)10]35/D-PBS solution: 100 μM (DFO concentration=1.00 mM)
DLD-1 cells were seeded on a 6-well plate at 1.0×10^5 cells/well and pre-cultured at 37° C. under 5% CO2 for 24 hours. After removing the solution, 3 mL of the prepared solution described above, diluted 10-fold with RPMI, was added to each well followed by incubating for 24 hours. After washing with 3 mL of D-PBS, 700 μL of a Trypsin-EDTA solution was added thereto followed by incubating for 10 min. After confirming that the cells had peeled off under an optical microscope, 700 μL of RPMI was added and suspended sufficiently. The suspension was centrifuged at 1,200 rpm for 3 min to remove the supernatant. 500 μL of RPMI was added, the number of cells was measured, and the cells in each sample were made to the same number. The suspension was centrifuged at 1,200 rpm for 3 min to remove the supernatant. […] After adding 400 μL of the binding buffer, the suspension was filtered through a cell strainer, and the fluorescence of PI and Annexin V was measured using FCM. […] The statistical significance was evaluated by Tukey's multiple comparison test (**** p<0.0001).

DLD-1 cells [2] = experiment: Cell proliferation suppressive action by CCK-8 assay; type: cell-based, human; conditions: 72 hours, CCK-8, absorbance at 450 nm
Protocol: The cancer cell proliferation suppressive action of PEG-P[Asp(DFO)m]n was evaluated by CCK-8 assay.
[Preparation of DFO Solution, PEG-P[Asp(DFO)10]35 Solution, and PEG-P[Asp(DFO)26]78 Solution] • DFO/D-PBS solution: 3.00 mM • PEG-P[Asp(DFO)10]35/D-PBS solution: 0.305 mM (DFO concentration=3.00 mM) • PEG-P[Asp(DFO)26]78/D-PBS solution: 0.118 mM (DFO concentration=3.00 mM)
DLD-1 cells were seeded on a 96-well plate at 1.0×10^3 cells/well and pre-cultured at 37° C. under 5% CO2 for 24 hours. 10 μL of the prepared solution described above was added to each well followed by incubating for 72 hours. 10 μL of CCK-8 solution was added to each well, and after incubating for 2 hours, the absorbance at 450 nm was measured. The results are shown as the value of mean±S.D. (n=5), and a statistically significant difference was evaluated by the t-test (****p<0.0001).

DLD-1 cells [3] = experiment: Free iron in the cytoplasm detected with FerroOrange; type: cell-based, human; conditions: 2.00 mM DFO-concentration solution diluted 10-fold, 24 hours
Protocol: To investigate whether DFO and PEG-P[Asp(DFO)m]n would decrease free iron in the cytoplasm, the free iron in the cytoplasm of cells treated with DFO and PEG-P[Asp(DFO)m]n was detected with FerroOrange.
[Preparation of DFO Solution and PEG-P[Asp(DFO)10]35 Solution] • DFO/D-PBS solution: 2.00 mM • PEG-P[Asp(DFO)10]35/D-PBS solution: […] (DFO concentration=2.00 mM) [Observation with Confocal Microscope]
DLD-1 cells were seeded on 35 mm^2 glass base dishes at 3.0×10^5 cells/well and pre-cultured at 37° C. under 5% CO2 for 24 hours. After removing the solution, 2 mL of the prepared solution described above, diluted 10-fold with RPMI, was added to each dish followed by incubating for 24 hours. After washing with 2 mL of serum-free RPMI, 1 mL of serum-free RPMI containing […] FerroOrange was added thereto followed by incubating in a dark place for 30 min. Thereafter, the fluorescence of FerroOrange was observed by CLSM.
DLD-1 cells were seeded on a 96-well plate at 1.0×10^4 cells/well and pre-cultured at 37° C. under 5% CO2 for 24 hours. After removing the solution, 100 μL of the prepared solution described above, diluted 10-fold with RPMI, was added to each well followed by incubating for 24 hours. […] Then, the fluorescence intensity of FerroOrange was measured with a plate reader. […] The statistical significance was evaluated by Tukey's multiple comparison test (****p<0.0001).

DLD-1 cells [4] = experiment: Cell cycle analysis by propidium iodide staining; type: cell-based, human; conditions: 72 hours
Protocol: The cell cycle was analyzed by propidium iodide (PI) staining to investigate the mechanism of cancer cell proliferation suppression of DFO and PEG-P[Asp(DFO)m]n.
[Preparation of DFO Solution and PEG-P[Asp(DFO)10]35 Solution] • DFO/D-PBS solution: 45.0 μM • PEG-P[Asp(DFO)10]35/D-PBS solution: 61.0 μM (DFO concentration=600 μM)
DLD-1 cells were seeded on a 6-well plate at 2.0×10^5 cells/well and pre-cultured at 37° C. under 5% CO2 for 24 hours. The prepared solution described above was diluted 10-fold with RPMI, and then 3 mL was added to each well followed by incubating for 72 hours. After washing with 3 mL of D-PBS, 700 μL of a Trypsin-EDTA solution was added thereto followed by incubating for 10 min. After confirming that the cells had been peeled off under an optical microscope, 700 μL of D-PBS containing 10% FBS was added thereto, and the cells were sufficiently suspended. The suspension was centrifuged at 1,200 rpm for 3 min to remove the supernatant. 500 μL of D-PBS was added to the cell pellet, which was subsequently suspended. The suspension was dropwise added to 4.5 mL of 70% ethanol and fixed in a −20° C. freezer overnight. […] Finally, the suspension was filtered through a cell strainer, and the fluorescence of propidium iodide was measured using FCM. The measured data were analyzed by ModFit LT. […]

DLD-1 cells [5] = experiment: DNA synthesis inhibition by BrdU staining; type: cell-based, human; conditions: 72 hours
Protocol: To investigate the mechanism of cell cycle arrest in the S phase by DFO and PEG-P[Asp(DFO)m]n, DNA synthesis inhibition was evaluated by BrdU staining.
[Preparation of DFO Solution and PEG-P[Asp(DFO)10]35 Solution] • DFO/D-PBS solution: 450 μM • PEG-P[Asp(DFO)10]35/D-PBS solution: […] (DFO concentration=600 μM) [Observation with Confocal Microscope]
DLD-1 cells were seeded on 35 mm^2 glass base dishes at 1.0×10^5 cells/well and pre-cultured at 37° C. under 5% CO2 for 24 hours. After removing the solution, 3 mL of the prepared solution described above, diluted 10-fold with RPMI, was added to each well followed by incubating for 72 hours. Then, 330 μL of a 10 mM BrdU/D-PBS solution was added thereto followed by incubating for 1 hour. After removing the solution, 1 mL of 1.0 M HCl solution was added thereto followed by incubating for 10 min. After removing the solution, 1 mL of a 0.1 M sodium tetraborate buffer (pH 8.5) was added thereto followed by incubating for 30 min. […]
DLD-1 cells were seeded on a 6-well plate at 2.0×10^5 cells/well and pre-cultured at 37° C. under 5% CO2 for 24 hours. […] The number of cells was measured, and the cells in each sample were made to the same number. […] Finally, the suspension was filtered through a cell strainer, and the fluorescence of BrdU was measured using FCM.

[6] = Non-Patent Documents 4 to 6; cited from earlier work
[7] = Pharmacokinetics (blood retention, tumor accumulation) in subcutaneous CT26 tumor mouse model; type: in vivo; conditions: intravenous
Protocol: To evaluate the blood retention and the tumor accumulation of DFO and PEG-P[Asp(DFO)m]n), a DFO/Ga (III) complex and a PEG-P[Asp(DFO)m]n/Ga (III) complex were intravenously injected into the subcutaneous CT26 tumor mouse model, and the Ga contents in the blood and the tumor after a predetermined period of time were measured by ICP-MS.
300 μL of a 26.8 mM GaCl3/D-PBS solution was added to 2.70 mL of a 16.9 mM DFO/D-PBS solution, and the resultant solution was stirred overnight. The pH was adjusted to 7.4 with NaOH, and then the solution was filtered through a filter.
300 μL of 26.8 mM GaCl3/D-PBS solution was added to 2.70 mL of a 1.71 mM PEG-P[Asp(DFO)10]35/D-PBS solution (DFO concentration=16.9 mM), and the resultant solution was stirred overnight. The reaction solution was placed in an ultrafiltration membrane (MWCO=10 kD) and subjected to ultrafiltration five times. 3 mL of D-PBS was added to the purified solution, and the resultant solution was filtered through a filter. […]
100 μl of the prepared solution described above was intravenously administered (DFO: […]) to the tail vein of a model mouse of which the tumor size reached about 200 mm^3. […] After filling up to 10 mL with pure water and filtration with a hydrophobic filter, the gallium contents of the blood and the various organs were measured by ICP-MS. […]

[8] = tested on: various cancer cell lines; conditions: Non-Patent Documents 1 to 3; cited from earlier work

With `CC(=O)N(O)CCCCCNC(=O)CCC(=O)N(O)CCCCCNC(=O)CCC(=O)N(O)CCCCCN` [DFO, Deferoxamine mesylate] the “proportion of apoptotic and necrotic cells” value (DLD-1 cells [1]) was “significantly increased the proportion of apoptotic and necrotic cells”, the cell proliferation suppression (DLD-1 cells [2]) was “significantly suppressed the proliferation” and the “free iron in the cytoplasm (FerroOrange fluorescence)” value (DLD-1 cells [3]) was “markedly decreased free iron in the cytoplasm”. For the same compound, the cell cycle arrest (DLD-1 cells [4]) was “induced cell cycle arrest in the S phase”, the “DNA synthesis inhibition (BrdU uptake)” value (DLD-1 cells [5]) was “BrdU uptake was significantly suppressed” and the “half-life of the in-blood concentration” value [6] was at most 20 min. For the same compound, the “blood retention (in words)” value [7] was “rapid disappearance from the blood; also recorded: disappeared from the blood at an early stage” and the “cell proliferation suppressive effect” value [8] was “cell proliferation suppressive effect through cell cycle arrest”.
